Results published in PMC7910608, “Tuning flavin environment to detect and control light-induced conformational switching in Drosophila cryptochrome” (Communications Biology, 2021).

Legend:
Assay type in all cases: binding
dCRY; dCRY(WT)-SORTC-SL [1] = biological target: T1, dCRY; dCRY(WT)-SORTC-SL (Drosophila melanogaster, UniProt O77059, H378N); assay: cw-ESR, UV-vis and 4P-DEER of bound flavin after blue light; settings: pH 8; anionic semiquinone formed in light
T1 construct: gene cry; full length, N-terminal twin-Strep tag, C-terminal sort-tag (LPGTG) ligated to GGGGC-nitroxide (LPGTGGGGC); E. coli CmpX13
T1 sequence (O77059 1-539 H378N): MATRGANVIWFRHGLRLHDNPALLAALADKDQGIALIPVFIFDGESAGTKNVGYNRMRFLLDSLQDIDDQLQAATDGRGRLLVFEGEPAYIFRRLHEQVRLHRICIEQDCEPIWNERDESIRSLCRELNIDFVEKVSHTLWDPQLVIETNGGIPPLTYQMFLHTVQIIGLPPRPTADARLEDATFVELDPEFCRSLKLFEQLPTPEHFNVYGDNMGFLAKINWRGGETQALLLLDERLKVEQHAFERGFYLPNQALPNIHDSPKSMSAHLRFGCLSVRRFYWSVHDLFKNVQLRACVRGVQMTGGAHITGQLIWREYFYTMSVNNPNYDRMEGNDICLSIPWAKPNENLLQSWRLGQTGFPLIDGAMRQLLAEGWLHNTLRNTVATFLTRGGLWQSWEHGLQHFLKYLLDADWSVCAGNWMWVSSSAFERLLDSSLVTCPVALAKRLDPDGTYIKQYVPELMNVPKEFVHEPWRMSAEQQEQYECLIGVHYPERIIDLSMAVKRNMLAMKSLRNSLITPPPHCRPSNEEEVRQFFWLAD

dCRY; dCRY(WT)-SORTC-SL [2] = biological target: T2, dCRY; dCRY(WT)-SORTC-SL (Drosophila melanogaster, UniProt O77059, H378K/L405E/C416N); assay: as above; settings: pH 8; neutral semiquinone formed in light
T2 construct: gene cry; full length, N-terminal twin-Strep tag, C-terminal sort-tag (LPGTG) ligated to GGGGC-nitroxide (LPGTGGGGC); E. coli CmpX13
T2 sequence (O77059 1-539 H378K/L405E/C416N): as the sequence (O77059 1-539 H378N) above, with N378K, L405E, C416N counted along it

dCRY; dCRY(WT)-SORTC-SL [3] = biological target: T3, dCRY; dCRY(WT)-SORTC-SL (Drosophila melanogaster, UniProt O77059, L405E/C416N); assay: UV-vis, ENDOR and cw-ESR of bound flavin, blue-light photoreduction; settings: pH 8; neutral semiquinone formed in light
T3 construct: gene cry; full length, N-terminal twin-Strep tag, C-terminal sort-tag (LPGTG) ligated to GGGGC-nitroxide (LPGTGGGGC); E. coli CmpX13
T3 sequence (O77059 1-539 L405E/C416N): as the sequence (O77059 1-539 H378N) above, with N378H, L405E, C416N counted along it

dCRY; dCRY(WT)-SORTC-SL [4] = biological target: T4, dCRY; dCRY(WT)-SORTC-SL (Drosophila melanogaster, UniProt O77059, H378K); assay: cw-ESR, UV-vis and 4P-DEER of bound flavin after blue light; settings: pH 8; anionic semiquinone formed in light
T4 construct: gene cry; full length, N-terminal twin-Strep tag, C-terminal sort-tag (LPGTG) ligated to GGGGC-nitroxide (LPGTGGGGC); E. coli CmpX13
T4 sequence (O77059 1-539 H378K): as the sequence (O77059 1-539 H378N) above, with N378K counted along it

dCRY; dCRY(WT)-SORTC-SL [5] = biological target: T5, dCRY; dCRY(WT)-SORTC-SL (Drosophila melanogaster, UniProt O77059, H378R); assay: as above; settings: pH 8; anionic semiquinone formed in light
T5 construct: gene cry; full length, N-terminal twin-Strep tag, C-terminal sort-tag (LPGTG) ligated to GGGGC-nitroxide (LPGTGGGGC); E. coli CmpX13
T5 sequence (O77059 1-539 H378R): as the sequence (O77059 1-539 H378N) above, with N378R counted along it

dCRY; dCRY(WT)-SORTC-SL [6] = biological target: T6, dCRY; dCRY(WT)-SORTC-SL (Drosophila melanogaster, UniProt O77059, H378N/L405E/C416N); assay: as above; settings: pH 8; neutral semiquinone formed in light
T6 construct: gene cry; full length, N-terminal twin-Strep tag, C-terminal sort-tag (LPGTG) ligated to GGGGC-nitroxide (LPGTGGGGC); E. coli CmpX13
T6 sequence (O77059 1-539 H378N/L405E/C416N): as the sequence (O77059 1-539 H378N) above, with L405E, C416N counted along it

dCRY; dCRY(WT)-SORTC-SL [7] = biological target: T7, dCRY; dCRY(WT)-SORTC-SL (Drosophila melanogaster, UniProt O77059); assay: X-ray crystal structure, […] A; also UV-vis and ENDOR; settings: dark state; crystals at pH 9; magnesium
T7 construct: gene cry; full length, N-terminal twin-Strep tag, C-terminal sort-tag (LPGTG) ligated to GGGGC-nitroxide (LPGTGGGGC); E. coli CmpX13
T7 sequence (O77059 1-539): as the sequence (O77059 1-539 H378N) above, with N378H counted along it

dCRY; dCRY(WT)-SORTC-SL [8] = biological target: T8, dCRY; dCRY(WT)-SORTC-SL (Drosophila melanogaster, UniProt O77059, H378R/L405E/C416N); assay: cw-ESR, UV-vis and 4P-DEER of bound flavin after blue light; settings: pH 8; neutral semiquinone formed in light
T8 construct: gene cry; full length, N-terminal twin-Strep tag, C-terminal sort-tag (LPGTG) ligated to GGGGC-nitroxide (LPGTGGGGC); E. coli CmpX13
T8 sequence (O77059 1-539 H378R/L405E/C416N): as the sequence (O77059 1-539 H378N) above, with N378R, L405E, C416N counted along it

With `Cc1cc2nc3c(=O)[nH]c(=O)nc-3n(C[C@H](O)[C@H](O)[C@H](O)COP(=O)(O)OP(=O)(O)OC[C@H]3O[C@@H](n4cnc5c(N)ncnc54)[C@H](O)[C@@H]3O)c2cc1C` [FAD] the “cw-ESR, UV-vis and 4P-DEER of bound flavin after blue light” value (from here on “cw-ESR … of bound flavin after blue light”) (dCRY; dCRY(WT)-SORTC-SL [1]) was “H378 substitutions (H378K/N/R) led to ASQ formation”, the “cw-ESR … of bound flavin after blue light” value (dCRY; dCRY(WT)-SORTC-SL [2]) was “triple substitutions (H378K/N/R, L405E, and C416N) led to NSQ formation” and the “UV-vis, ENDOR and cw-ESR of bound flavin, blue-light photoreduction” value (dCRY; dCRY(WT)-SORTC-SL [3]) was “Both WT dCRY and L405E/C416N show characteristic absorption bands of oxidized FAD in the dark”. The “cw-ESR … of bound flavin after blue light” value (dCRY; dCRY(WT)-SORTC-SL [4]) was “H378 substitutions (H378K/N/R) led to ASQ formation”, the “cw-ESR … of bound flavin after blue light” value (dCRY; dCRY(WT)-SORTC-SL [5]) was “H378 substitutions (H378K/N/R) led to ASQ formation” and the “cw-ESR … of bound flavin after blue light” value (dCRY; dCRY(WT)-SORTC-SL [6]) was “triple substitutions (H378K/N/R, L405E, and C416N) led to NSQ formation”. For the same compound, the “X-ray crystal structure, 2.58 A; also UV-vis and ENDOR” value (dCRY; dCRY(WT)-SORTC-SL [7]) was “The crystal structure of dCRY-WT-SORTC-SL in the dark state shows that the active site FAD” and the “cw-ESR … of bound flavin after blue light” value (dCRY; dCRY(WT)-SORTC-SL [8]) was “triple substitutions (H378K/N/R, L405E, and C416N) led to NSQ formation”.
